Laboratory results taken from patent publication US11618747B2, “LXR modulators with bicyclic core moiety” (OrsoBio, Inc., priority 2018, dated 2023).

Key:
[1] = target: T1, LXRβ ligand-binding domain (Homo sapiens, UniProt P55055, DUP175-175); assay: TR-FRETβ activity assay (NCoA3 coactivator peptide recruitment); format: biochemical; settings: TR-FRET, 1 μM 24(S)-25-epoxycholesterol prestimulation; read-out: FRETβ (EC50 range)
T1 construct: amino acids 156-461; NP009052; made in house; host or cells: E. coli
T1 sequence (P55055 with tags, fused parts or gaps DUP175-175 limits assumed): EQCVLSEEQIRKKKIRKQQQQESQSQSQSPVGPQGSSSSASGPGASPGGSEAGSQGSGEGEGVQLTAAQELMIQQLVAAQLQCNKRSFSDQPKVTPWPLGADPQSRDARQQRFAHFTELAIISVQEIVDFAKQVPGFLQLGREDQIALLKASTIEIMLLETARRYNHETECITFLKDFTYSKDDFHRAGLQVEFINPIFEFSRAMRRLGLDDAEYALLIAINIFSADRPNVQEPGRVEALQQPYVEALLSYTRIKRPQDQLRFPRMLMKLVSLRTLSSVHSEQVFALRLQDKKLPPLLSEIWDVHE
Description: (§1) The tested compounds were usually dissolved, tested and stored as 20 mM stock solutions in DMSO. Since sulfonyl acetic acid derivatives tend to decarboxylate under these conditions, these stock solutions were prepared, tested and stored as 20 mM DMSO stock solutions containing 100 mM trifluoroacetic Acid (5 equivalents). Sulfonyl acetic acid derivatives are shelf stable as solid at rt for long time as reported by Griesbrecht et al. (Synlett 2010:374) or Faucher et al. (J. Med. Chem. 2004; 47:18).
Recombinant GST-LXRPβ ligand-binding domain (LBD; amino acids 156-461; NP009052; SEQ ID NO:4) was expressed in E. coli and purified via gluthatione-sepharose affinity chromatography. N-terminally biotinylated NCoA3 coactivator peptide (SEQ ID NO:7) was chemically synthesized (Eurogentec). Assays were done in 384 well format (final assay volume of 25 μL/well) in a Tris/HCl buffer (pH 6.8) containing KCl, bovine serum albumin, Triton-X-100 and 1 μM 24(S)-25-epoxycholesterol as LXR-prestimulating agonist. Assay buffer was provided and test articles (potential LXR inverse agonists) were titrated to yield final assay concentrations of 50 μM, 16.7 μM, 5.6 μM, 1.9 μM, 0.6 μM, 0.2 μM, 0.07 μM, 0.02 μM, 0.007 μM, 0.002 μM with one vehicle control. Finally, a detection mix was added containing anti GST-Tb cryptate (CisBio; 610SAXLB) and Streptavidin-XL665 (CisBio; 610SAXLB) as fluorescent donor and acceptor, respectively, as well as the coactivator peptide and LXRβ-LBD protein (SEQ ID NO:4). The reaction was mixed thoroughly, equilibrated for 1 h at 4° C. and vicinity of LXRβ and coactivator peptide was detected by measurement of fluorescence in a VictorX4 multiplate reader (PerkinElmer Life Science) using 340 nm as excitation and 615 and 665 nm as emission wavelengths. Assays were performed in triplicates.
Final Assay Concentrations of Components:
240 mM KCl, 1 μg/μL BSA, 0.002% Triton-X-100, […] anti GST-Tb cryptate, 2.5 ng/μL Streptavidin-XL665, coactivator peptide (400 nM), LXRβ protein (530 μg/mL, i.e. 76 nM).

full length (FL) LXRα = target: T2, full length (FL) LXRα (Homo sapiens, UniProt Q13133); assay: LXR Gal4 reporter transient transfection assay (FL-M2H Gal4α); format: cell-based; settings: HEK293 cells, full length LXRα; read-out: FL-M2H Gal4α (EC50 range)
T2 construct: the full length (FL) proteins of LXRα (amino acids 1-447); NP005684; expressed in transfected cells; host or cells: HEK293
T2 sequence (Q13133 1-447): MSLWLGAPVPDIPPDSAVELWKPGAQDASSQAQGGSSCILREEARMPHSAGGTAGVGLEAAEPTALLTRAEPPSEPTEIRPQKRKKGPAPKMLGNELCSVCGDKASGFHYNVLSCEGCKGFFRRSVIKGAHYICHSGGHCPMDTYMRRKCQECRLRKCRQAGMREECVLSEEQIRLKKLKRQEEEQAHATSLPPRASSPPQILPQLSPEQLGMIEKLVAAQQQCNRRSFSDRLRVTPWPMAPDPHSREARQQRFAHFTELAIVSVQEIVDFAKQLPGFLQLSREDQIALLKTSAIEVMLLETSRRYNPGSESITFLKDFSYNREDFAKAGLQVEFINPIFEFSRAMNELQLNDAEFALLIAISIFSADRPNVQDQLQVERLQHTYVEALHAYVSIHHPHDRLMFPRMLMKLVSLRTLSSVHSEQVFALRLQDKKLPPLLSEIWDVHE
Description: as §1
(§2) LXR Gal4 Reporter Transient Transfection Assays
(§3) LXRα and LXRβ activity status was determined via detection of interaction with coactivator and corepressor proteins in mammalian two-hybrid experiments (M2H). For this, via transient transfection the full length (FL) proteins of LXRα (amino acids 1-447; NP005684; SEQ ID NO:1) or LXRβ-(amino acids 1-461; NP009052; SEQ ID NO:2) or the ligand-binding domains (LBD) of LXRα (amino acids 155-447 SEQ ID NO:3) or LXRβ (amino acids 156-461; SEQ ID NO:4) were expressed from pCMV-AD (Stratagene) as fusions to the transcriptional activation domain of NFkB. As cofactors, domains of either the steroid receptor coactivator 1 (SRC1; amino acids 552-887; SEQ ID NO:5) or of the corepressor NCoR (amino acids 1906-2312; NP006302; SEQ ID NO:6) were expressed as fusions to the DNA binding domain of the yeast transcription factor GAL4 (from pCMV-BD; Stratagene). Interaction was monitored via activation of a coexpressed Firefly Luciferase Reporter gene under control of a promoter containing repetitive GAL4 response elements (vector pFRLuc; Stratagene). Transfection efficiency was controlled via cotransfection of constitutively active pRL-CMV Renila reniformis luciferase reporter (Promega). HEK293 cells were grown in minimum essential medium (MEM) with 2 mM L-glutamine and Earle's balanced salt solution supplemented with 8.3% fetal bovine serum, 0.1 mM non-essential amino acids, 1 mM sodium pyruvate, at 37° C. in 5% CO2. 3.5×10^4 cells/well were plated in 96-well cell culture plates in growth medium supplemented with 8.3% fetal bovine serum for 16-20 h to ˜90% confluency. For transfection, medium was taken off and LXR and cofactor expressing plasmids as well as the reporter plasmids are added in 30 μL OPTIMEM/well including polyethylene-imine (PEI) as vehicle. Typical amounts of plasmids transfected/well: pCMV-AD-LXR (5 ng), pCMV-BD-cofactor (5 ng), pFR-Luc (100 ng), pRL-CMV (0.5 ng). Compound stocks were prepared in DMSO, prediluted in MEM to a total volume of 120 μL, and added 4 h after addition of the transfection mixture (final vehicle concentration not exceeding 0.2%). Cells were incubated for additional 16 h, lysed for 10 min in 1× Passive Lysis Buffer (Promega) and Firefly and Renilla luciferase activities were measured sequentially in the same cell extract using buffers containing D-luciferine and coelenterazine, respectively. Measurements of luminescence were done in a BMG-luminometer.

full length (FL) LXRβ = target: T3, full length (FL) LXRβ (Homo sapiens, UniProt P55055, DUP175-175); assay: LXR Gal4 reporter transient transfection assay (FL-M2H Gal4β); format: cell-based; settings: HEK293 cells, full length LXRβ; read-out: FL-M2H Gal4β (EC50 range)
T3 construct: the full length (FL) proteins of LXRα (amino acids 1-447); NP005684; NP009052; expressed in transfected cells; host or cells: HEK293
T3 sequence (P55055 with tags, fused parts or gaps DUP175-175): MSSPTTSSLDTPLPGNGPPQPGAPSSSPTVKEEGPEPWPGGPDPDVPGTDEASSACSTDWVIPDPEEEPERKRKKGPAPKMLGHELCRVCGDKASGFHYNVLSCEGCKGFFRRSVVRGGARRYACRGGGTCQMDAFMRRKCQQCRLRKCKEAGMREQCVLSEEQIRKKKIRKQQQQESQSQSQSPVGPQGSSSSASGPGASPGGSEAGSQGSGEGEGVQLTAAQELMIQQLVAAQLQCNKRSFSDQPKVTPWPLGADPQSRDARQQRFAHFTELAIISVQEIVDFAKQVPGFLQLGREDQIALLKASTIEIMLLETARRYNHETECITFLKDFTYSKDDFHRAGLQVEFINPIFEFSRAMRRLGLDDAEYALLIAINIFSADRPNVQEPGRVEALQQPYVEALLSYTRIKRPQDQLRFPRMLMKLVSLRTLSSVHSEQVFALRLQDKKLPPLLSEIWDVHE
Description: as §1, §2, §3

Compound	EC50 [1]	EC50 (full length (FL) LXRα)	EC50 (full length (FL) LXRβ)
Cc1ccc(S(=O)(=O)n2c(-c3cccc([C@@H]4C[C@H]4C(=O)O)c3)c(-c3ccsc3C#N)c3ncccc32)cc1 (relative stereo) [Example 4, trans-2-(3-(3-(2-Cyanothioahen-3-yl)-1-tosyl-1H-pyrrolo[3,2-b]pyridin-2-yl)phenyl)cyclopropane-1-carboxylic Acid]	1000 to 10000 nM	< 100 nM	100 to 1000 nM
Cc1cccc(C#N)c1-c1c(-c2cccc(-c3ccc(C(=O)O)cc3Cl)c2)n(S(=O)(=O)c2ccc(C(F)F)cc2)c2ccc(F)cc12 (single isomer, unassigned) [41/1, 2-chloro-3′-(3-(2-cyano-6-methylphenyl)-1-((4-(difluoro-methyl)phenyl)sulfonyl)-5-fluoro-1H-indol-2-yl)-[1,1′-biphenyl]-4-carboxylic Acid]	< 100 nM	< 100 nM	< 100 nM
Cc1cccc(C#N)c1-c1c(-c2cccc(-c3ccc(C(=O)O)cc3Cl)c2)n(S(=O)(=O)c2ccc(C(F)F)cc2)c2ccc(F)cc12 (single isomer, unassigned) [41/2, 2-chloro-3′-(3-(2-cyano-6-methylphenyl)-1-((4-(difluoro-methyl)phenyl)sulfonyl)-5-fluoro-1H-indol-2-yl)-[1,1′-biphenyl]-4-carboxylic Acid]	< 100 nM	< 100 nM	
COC(=O)c1ccc(-c2cccc(-c3c(-c4c(C)cccc4C#N)c4cc(F)ccc4n3S(=O)(=O)c3ccc(C(F)F)cc3)c2)c(Cl)c1 [1/122]	100 to 1000 nM	< 100 nM	< 100 nM
N#Cc1cccc(C#N)c1-c1c(-c2cccc(Br)c2)n(S(=O)(=O)c2ccc(C(F)F)cc2)c2ccc(F)cc12 [1/139]	100 to 1000 nM	< 100 nM	< 100 nM
Cc1ccc(S(=O)(=O)n2c(-c3cccc(-c4ccc(CN)cc4Cl)c3)c(-c3ccsc3C#N)c3cc(F)ccc32)cc1 [2/1]	100 to 1000 nM	100 to 1000 nM	100 to 1000 nM
Cc1ccc(S(=O)(=O)n2c(-c3cccc(-c4ccc(C(C)(C)N)cc4Cl)c3)c(-c3ccsc3C#N)c3cc(F)ccc32)cc1 [2/2]	100 to 1000 nM	100 to 1000 nM	100 to 1000 nM
Cc1ccc(S(=O)(=O)n2c(-c3cccc(-c4cc(F)c(CO)c(S(C)(=O)=O)c4)c3)c(-c3ccsc3C#N)c3cc(F)ccc32)cc1 [2/16]	< 100 nM	< 100 nM	< 100 nM
Cc1ccc(S(=O)(=O)n2c(-c3cccc(-c4ccc(C(C)(C)C(=O)O)c(S(C)(=O)=O)c4)c3)c(-c3ccsc3C#N)c3cc(F)ccc32)cc1 [2/18]	100 to 1000 nM	100 to 1000 nM	< 100 nM
Cc1ccc(S(=O)(=O)n2c(-c3cccc(C4(C)CC4C(=O)O)c3)c(-c3ccsc3C#N)c3cc(F)ccc32)cc1 (centres unmarked) [3/1]	100 to 1000 nM	100 to 1000 nM	100 to 1000 nM
Cc1ccc(S(=O)(=O)n2c(-c3cccc(C4(C)CC4C(=O)O)c3)c(-c3ccsc3C#N)c3cc(F)ccc32)cc1 (centres unmarked) [3/2]	1000 to 10000 nM	100 to 1000 nM	< 100 nM
COc1sccc1-c1c(-c2cccc(N3CC(C(=O)O)C3)c2)n(S(=O)(=O)c2ccc(C)cc2)c2ccc(F)cc12 [3/3]	1000 to 10000 nM	100 to 1000 nM	100 to 1000 nM
Cc1ccc(S(=O)(=O)n2c(-c3cccc(N4CC(C(=O)O)C4)c3)c(-c3ccsc3C(F)F)c3cc(F)ccc32)cc1 [3/4]	100 to 1000 nM	100 to 1000 nM	< 100 nM
Cc1ccc(S(=O)(=O)n2c(-c3cccc(N4CC(C(=O)O)C4)c3)c(-c3ccsc3C=O)c3cc(F)ccc32)cc1 [3/5]	100 to 1000 nM	100 to 1000 nM	100 to 1000 nM
N#Cc1sccc1-c1c(-c2cccc(N3CC(C(=O)O)C3)c2)n(S(=O)(=O)c2ccc(OC(F)F)cc2)c2ccc(F)cc12 [3/11]	1000 to 10000 nM	100 to 1000 nM	
CC(O)(C(=O)O)c1ccc(-c2cccc(-c3c(-c4c(C#N)cccc4C#N)c4cc(F)ccc4n3S(=O)(=O)c3ccc(C(F)F)cc3)c2)c(Cl)c1 (centres unmarked) [11/60]		< 100 nM	< 100 nM
N#Cc1cccc(C#N)c1-c1c(-c2cccc(-c3ccc(C(=O)O)cc3Cl)c2)n(S(=O)(=O)c2ccc(C(F)F)cc2)c2cc(F)c(O)cc12 [Example 44, 2-Chloro-3′-(3-(2,6-dicyanophenyl)-1-((4-(difluoromethyl)phenyl)sulfonyl)-6-fluoro-5-hydroxy-1H-indol-2-yl)-[1,1′-biphenyl]-4-carboxylic Acid]	100 to 1000 nM		< 100 nM
